Test results taken from PMC8819291, “Adaptively evolved human oral actinomyces‐sourced defensins show therapeutic potential” (EMBO Molecular Medicine, 2021).
Marks after values point to notes of the source that are not given here. Where a SMILES comes first, the peptide text is derived from it. Bridges are numbered along the chain shown (N, C = ends).

What was measured:
[1] = system: fresh erythrocytes from the female ICR mice; assay: Hemolysis assay; format: cell-based, Mus musculus
Protocol: Hemolytic activity of peptides against fresh erythrocytes from the female ICR mice (Mus musculus) (25 g, 6 weeks of age) was assayed according to the standard method (Zhu et al, [2012]). Peptides were diluted with 0.9% NaCl to the indicated concentration. The percentage of hemolysis is determined as (A pep–A blank)/(A tot–A blank) × 100, in which “A” represents absorbance measured at 570 nm. A blank and A pep were evaluated in the absence or presence of peptides. One hundred percent hemolysis (A tot) was obtained in the presence of 1% Triton X‐100.

[2] = Bioaffinity ESI-MS with UMP; format: binding, Staphylococcus aureus; conditions: 25 mM ammonium acetate (pH5.2)
Protocol: All components for interactions were dissolved in 25 mM ammonium acetate (pH5.2). Electrospray spectra were recorded with Waters SynaptG2‐Si mass spectrometer (Waters, Manchester, UK) and measurements were performed with positive ESI in resolution mode. Ions were scanned in a mass range of 500–2,000 m/z with the following conditions: the capillary voltage at 1,500 V; the cone voltage at 40 V; the source block temperature at 30°C. Spectra were recorded and processed by the software Masslynx4.1 (Waters, Manchester, UK).

[3] = system: SP D39; assay: Mouse lung infection model
Protocol: To this end, ICR female mice (30 g each mouse; 9–10 weeks of age) were anesthetized with 1.25% 2,2,2‐Tribromoethanol (Avertin) (Macklin, Shanghai, China) and hung by their front teeth on a steel wire. Then, they were inoculated intranasally with 10–20 µl bacterial suspension of SP D39 of fresh overnight culture (1.5 × 10^6 CFU per mouse) and then were removed from the wire to their cages. A control group of untreated mice was included. […] Mice were treated with penicillin as a positive control. At 48 h post‐infection, the mice were sacrificed and lungs removed and homogenized in 0.9% saline. Colony counts from lung homogenates were determined and the total number of colonies/lungs per mouse was calculated. Schematic representation is provided in Appendix Fig S16B.

[4] = system: Staphylococcus aureus J708; assay: Inhibition-zone assay (lethal concentration); format: cell-based; conditions: Broth Medium, 37°C
Description: (§1) Bacterial media used here included: Luria‐Bertani (LB) medium, THY medium (30 g Todd Hewitt broth and 5 g Yeast extract per liter), and tryptic soy broth (TSB) (Oxoid, Basingstoke, UK); Broth medium and brain–heart infusion (BHI) medium (Beijing Landbridge technology Limited by Share Ltd., Beijing, China); Potato dextrose (PD) medium (self‐prepared).
(§2) In brief, an overnight bacterial culture from a single colony was inoculated into fresh medium and grew to late log‐phase. A 10‐μl aliquot of each culture was diluted in 6‐ml pre‐heated medium containing 0.8% agar. The mixture was spread on a 9‐cm Petri dish, giving a depth of 1 mm. After settling, 3‐mm wells were punched in the plate and then 2‐μl peptide samples of different concentrations were added to each well. The agar plates were incubated overnight at indicated temperatures (Table EV4). A lethal concentration (C L ) was calculated from a plot of d^2 against log n, where d is the diameter (in cm) and n is the amount of sample applied in the well (in nmol). The plot is linear, and thus C L can be calculated from the slope (k) and the intercept (m) of this plot.

[5] = system: penicillin‐sensitive Staphylococcus epidermidis P1111; assay: Inhibition-zone assay (lethal concentration); format: cell-based; conditions: Broth Medium, 37°C
Description: as §1, §2

[6] = system: Streptococcus pneumoniae TIGR4; assay: Inhibition-zone assay (lethal concentration); format: cell-based; conditions: THY, 5% CO2, 37°C
Description: as §1, §2

[7] = system: Staphylococcus aureus CGMCC 1.89; assay: Inhibition-zone assay (lethal concentration); format: cell-based; conditions: Broth Medium, 37°C
Description: as §1, §2

[8] = system: Methicillin‐resistant Staphylococcus aureus P1386; assay: Inhibition-zone assay (lethal concentration); format: cell-based; conditions: Broth Medium, 37°C
Description: as §1, §2

[9] = system: Bacillus subtilis CGMCC 1.2428; assay: Inhibition-zone assay (lethal concentration); format: cell-based; conditions: LB, 37°C
Description: as §1, §2

[10] = system: Streptomyces scabiei CGMCC 4.1765 (ATCC 49173); assay: Inhibition-zone assay (lethal concentration); format: cell-based; conditions: Tryptone Soy Broth (TSB), 30°C
Description: as §1, §2

[11] = system: Streptococcus pneumoniae ST556; assay: Inhibition-zone assay (lethal concentration); format: cell-based; conditions: THY, 5% CO2, 37°C
Description: as §1, §2

[12] = system: Enterococcus faecalis V583 (ATCC 700802); assay: Inhibition-zone assay (lethal concentration); format: cell-based; conditions: BHI, 37°C
Description: as §1, §2

[13] = system: Methicillin‐resistant Staphylococcus aureus P1374; assay: Inhibition-zone assay (lethal concentration); format: cell-based; conditions: Broth Medium, 37°C
Description: as §1, §2

[14] = system: Streptococcus pneumoniae R6; assay: Inhibition-zone assay (lethal concentration); format: cell-based; conditions: THY, 5% CO2, 37°C
Description: as §1, §2

[15] = system: Staphylococcus aureus J700; assay: Inhibition-zone assay (lethal concentration); format: cell-based; conditions: Broth Medium, 37°C
Description: as §1, §2

[16] = system: Streptococcus mutans CGMCC 1.2499 (ATCC 25175); assay: Inhibition-zone assay (lethal concentration); format: cell-based; conditions: Broth Medium, 37°C
Description: as §1, §2

[17] = system: Streptococcus salivarius CGMCC 1.2498 (ATCC 7073); assay: Inhibition-zone assay (lethal concentration); format: cell-based; conditions: Broth Medium, 37°C
Description: as §1, §2

[18] = system: Streptococcus pneumoniae D39; assay: Inhibition-zone assay (lethal concentration); format: cell-based; conditions: THY, 5% CO2, 37°C
Description: as §1, §2

[19] = system: Streptococcus pneumoniae ST556 (StrR); assay: Inhibition-zone assay (lethal concentration); format: cell-based; conditions: streptomycin‐resistant strain; THY, 5% CO2, 37°C
Description: as §1, §2

[20] = system: penicillin‐resistant Staphylococcus aureus P1383; assay: Inhibition-zone assay (lethal concentration); format: cell-based; conditions: Broth Medium, 37°C
Description: as §1, §2

[21] = system: Staphylococcus aureus J685; assay: Inhibition-zone assay (lethal concentration); format: cell-based; conditions: Broth Medium, 37°C
Description: as §1, §2

[22] = system: Bacillus megaterium CGMCC 1.0459; assay: Inhibition-zone assay (lethal concentration); format: cell-based; conditions: LB, 37°C
Description: as §1, §2

[23] = system: Staphylococcus aureus J698; assay: Inhibition-zone assay (lethal concentration); format: cell-based; conditions: Broth Medium, 37°C
Description: as §1, §2

[24] = system: Staphylococcus aureus J710; assay: Inhibition-zone assay (lethal concentration); format: cell-based; conditions: Broth Medium, 37°C
Description: as §1, §2

CC[C@H](C)[C@@H]1NC(=O)[C@H](CCCCN)NC(=O)CNC(=O)[C@H](CCCNC(=N)N)NC(=O)[C@@H]2CSSC[C@H](NC(=O)CNC(=O)[C@H](Cc3ccccc3)NC(=O)CN)C(=O)N3CCC[C@H]3C(=O)N[C@@H](Cc3c[nH]c4ccccc34)C(=O)N[C@@H](CC(N)=O)C(=O)N[C@@H](C)C(=O)N[C@@H](Cc3ccc(O)cc3)C(=O)N[C@@H](CCC(=O)O)C(=O)N[C@H]3CSSC[C@H](NC(=O)[C@H]([C@@H](C)O)NC(=O)[C@H](CCC(N)=O)NC(=O)[C@H](CCCNC(=N)N)NC1=O)C(=O)N[C@@H](Cc1c[nH]cn1)C(=O)N[C@H](C(=O)N[C@@H](Cc1ccc(O)cc1)C(=O)O)CSSC[C@H](NC(=O)[C@H](Cc1c[nH]cn1)NC(=O)[C@H](CCCNC(=N)N)NC(=O)[C@H](CC(=O)O)NC3=O)C(=O)N[C@@H](C(C)C)C(=O)N[C@@H](CO)C(=O)N[C@@H](CCCCN)C(=O)NCC(=O)N[C@@H](Cc1ccc(O)cc1)C(=O)N[C@@H]([C@@H](C)O)C(=O)NCC(=O)NCC(=O)N[C@@H](CC(N)=O)C(=O)N2 [AMSIN] (H-GFGCPWNAYECDRHCVSKGYTGGNCRGKIRQTCHCY-OH; disulfide 4-25, 11-33, 15-35; N-terminus and C-terminus assumed)
Hemolysis (%) ([1]; 6.25 μM, absorbance 570 nm, 100% = 1% Triton X‐100, technical replicate 1): 1.49% | Hemolysis (%) ([1]; 6.25 μM, technical replicate 2): 1.24% | Hemolysis (%) ([1]; 6.25 μM, technical replicate 3): 1.65% | Hemolysis (%) ([1]; 12.5 μM, technical replicate 1): 2.48% | Hemolysis (%) ([1]; 12.5 μM, technical replicate 2): 1.98% | Hemolysis (%) ([1]; 12.5 μM, technical replicate 3): 2.04% | Hemolysis (%) ([1]; 25 μM, technical replicate 1): 6.96% | Hemolysis (%) ([1]; 25 μM, technical replicate 2): 5.2% | Hemolysis (%) ([1]; 25 μM, technical replicate 3): 5.2% | Non-covalent complex with UMP by ESI-MS [2]: quadruply protonated complex | Log10 (CFU per lung) ([3]; 8.35 mg/kg i.m. 24 h after intranasal SP D39, lungs at 48 h post‐infection, animal 1): 3.3 Log10 (CFU per lung) | Log10 (CFU per lung) ([3]; 8.35 mg/kg i.m., animal 2): 3.48 Log10 (CFU per lung) | Log10 (CFU per lung) ([3]; 8.35 mg/kg i.m., animal 3): 3.3 Log10 (CFU per lung) | Log10 (CFU per lung) ([3]; 8.35 mg/kg i.m., animal 4): 3 Log10 (CFU per lung) | Log10 (CFU per lung) ([3]; 8.35 mg/kg i.m., animal 5): 3.78 Log10 (CFU per lung) | Log10 (CFU per lung) ([3]; 16.7 mg/kg i.m., animal 1): 3.89 Log10 (CFU per lung) | Log10 (CFU per lung) ([3]; 16.7 mg/kg i.m., animal 2): 1.48 Log10 (CFU per lung) | Log10 (CFU per lung) ([3]; 16.7 mg/kg i.m., animal 3): 1 Log10 (CFU per lung) | Log10 (CFU per lung) ([3]; 16.7 mg/kg i.m., animal 4): 4.2 Log10 (CFU per lung) | Log10 (CFU per lung) ([3]; 16.7 mg/kg i.m., animal 5): 1.6 Log10 (CFU per lung) | Log10 (CFU per lung) ([3]; 33 mg/kg i.m., animal 1): 1 Log10 (CFU per lung) | Log10 (CFU per lung) ([3]; 33 mg/kg i.m., animal 2): 1.3 Log10 (CFU per lung) | Log10 (CFU per lung) ([3]; 33 mg/kg i.m., animal 3): 1 Log10 (CFU per lung) | Log10 (CFU per lung) ([3]; 33 mg/kg i.m., animal 4): 1.3 Log10 (CFU per lung) | Log10 (CFU per lung) ([3]; 33 mg/kg i.m., animal 5): 1.48 Log10 (CFU per lung) | Reduction of CFU in lungs ([3]; different doses (8.35, 16.7, 33 mg per kg i.m.)): 4.6–6.7 log10 | Toxicity of administration route in the model ([3]; intramuscular injection (i.m.)): no obvious toxicity | Lethal concentration (C L) [4]: 1.14 µM | Lethal concentration (C L) [5]: 5.20 µM | Lethal concentration (C L) [6]: 0.14 µM | Lethal concentration (C L) [7]: 5.20 µM | Lethal concentration (C L) [8]: 0.74 µM | Lethal concentration (C L) [9]: 1.00 µM | Lethal concentration (C L) [10]: 2.01 µM | Lethal concentration (C L) [11]: 0.14 µM | Lethal concentration (C L) [12]: 4.65 µM | Lethal concentration (C L) [13]: 0.62 µM | Lethal concentration (C L) [14]: 0.14 µM | Lethal concentration (C L) [15]: 5.20 µM | Lethal concentration (C L) ([16]; AMSIN alone): 1.01 µM | Lethal concentration (C L) ([16]; In combination with HNP1&2): 0.38 ^a µM | Lethal concentration (C L) ([16]; In combination with hLZc): 0.56 ^b µM | Lethal concentration (C L) [17]: 0.49 µM | Lethal concentration (C L) [18]: 0.09 µM | Lethal concentration (C L) [19]: < 0.14 µM | Lethal concentration (C L) [20]: 4.28 µM | Lethal concentration (C L) [21]: 10.40 µM | Lethal concentration (C L) ([22]; AMSIN alone): 0.11 µM | Lethal concentration (C L) ([22]; In combination with HNP1&2): 0.038 ^a µM | Lethal concentration (C L) ([22]; In combination with hLZc): 0.045 ^b µM | Lethal concentration (C L) [23]: 5.20 µM | Lethal concentration (C L) [24]: 2.60 µM
